This passage reports inhibition and IC50 results from patent publication US12691101B2, “Compound and method for preventing or treating of respiratory diseases comprising the same as an active ingredient” (YONSEI UNIVERSITY, UNIVERSITY - INDUSTRY FOUNDATION (UIF), priority 2019, dated 2026).

The term IC50 denotes the midpoint of a concentration-inhibition curve.

The target of the assay is T1, human wild-type (WT)-pendrin (Homo sapiens, UniProt O43511).
T1 construct: expressed in transfected cells
T1 sequence (O43511 1-780): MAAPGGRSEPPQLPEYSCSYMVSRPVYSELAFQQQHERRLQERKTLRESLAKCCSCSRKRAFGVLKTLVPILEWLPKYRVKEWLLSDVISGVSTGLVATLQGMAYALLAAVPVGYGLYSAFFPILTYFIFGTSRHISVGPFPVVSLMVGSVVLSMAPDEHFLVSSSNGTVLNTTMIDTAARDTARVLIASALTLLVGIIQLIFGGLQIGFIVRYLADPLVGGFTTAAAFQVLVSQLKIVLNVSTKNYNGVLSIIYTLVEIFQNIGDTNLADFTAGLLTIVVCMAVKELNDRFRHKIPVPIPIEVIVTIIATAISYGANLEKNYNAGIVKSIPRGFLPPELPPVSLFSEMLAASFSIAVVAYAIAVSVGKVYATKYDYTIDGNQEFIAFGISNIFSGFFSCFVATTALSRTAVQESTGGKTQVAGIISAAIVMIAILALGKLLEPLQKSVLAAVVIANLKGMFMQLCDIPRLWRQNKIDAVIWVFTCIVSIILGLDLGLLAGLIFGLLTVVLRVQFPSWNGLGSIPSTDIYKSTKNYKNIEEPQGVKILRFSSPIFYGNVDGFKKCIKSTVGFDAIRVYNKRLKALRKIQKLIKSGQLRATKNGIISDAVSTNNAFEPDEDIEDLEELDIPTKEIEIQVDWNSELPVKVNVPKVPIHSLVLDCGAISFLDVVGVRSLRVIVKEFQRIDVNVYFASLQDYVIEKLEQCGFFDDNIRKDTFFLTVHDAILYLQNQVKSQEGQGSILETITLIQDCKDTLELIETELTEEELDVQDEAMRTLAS
The assay is described as follows: Pendrin-mediated Cl^−/I^− exchange activity, YFP fluorescence in CHO-K1 cells. It is filed as cell-based. As to conditions: for inhibition at 30 µM: CHO-K1, 30 μM, read-out: Pendrin inhibitory activity at 30 μM (%); for IC50: compounds showing pendrin inhibitory activity of 50% or more at 30 μM, read-out: IC50. On the procedure: Chinese hamster ovary (CHO)-K1 cells were maintained in a DMEM medium containing 10% fetal bovine serum (FBS), 100 units/ml penicillin and 100 100 μg/ml streptomycin. CHO-K1 cells were stably transfected with pcDNA3.1 encoding halide sensor YFP-H148Q/I152L/F46L and human wild-type (WT)-pendrin. For distribution of primary culture of human nasal cavity epithelium (HNE) cells, passage-2 cells were seeded into transwell-transparent culture inserts with a pore size of 0.45 μm (Costar Co., Cambridge, MA) at a density of 2×10^5 cells/cm^2. The cells were maintained in a 1:1 mixture of Dulbecco's modified Eagle's medium (Lonza, Walkersville, MD) and bronchial epithelial growth medium (Lonza) supplemented with the following growth factors according to the manufacturer's instructions. After immersing the cells for the first 7 days, they were exposed to the apical air interface for the remainder of the culture period. After establishment of the air-liquid interface, the cells were used between 14 and 21 days. At all stages of culture, the cells were maintained at 37° C. under 5% CO2 in an air incubator.
CHO-K1 cells expressing human WT pendrin and YFP-F46L/H148Q/I152L were plated on a 96-well microplate at a density of 2×10^4 cells per well and cultured for 48 hours. Each well of the cell cultured 96-well plate was washed with PBS of 200 μL twice and was filled with HEPES buffer solution of 50 μL, respectively. […] After culturing at 37° C. for 10 minutes, the 96-well plate was positioned on FLUOstar Omega microplate reader (BMG Labtech, Ortenberg, Germany) for fluorescence analysis. By continuously (400 ms per point) recording fluorescence for 1 second (base line), each well was individually analyzed for pendrin-mediated I^− inflow, and then at 1 second, 50 μL of NaI-substituted HEPES buffer solution (NaI replacing NaCl) was added using a liquid injector and the YFP fluorescence was recorded for 5 seconds. The initial iodide inflow rate was determined from the initial slope of fluorescence by nonlinear regression, after injection the iodide (See FIG. 1).
For measurement of Cl^−/I^− exchange activity, YFP fluorescence was measured in pendrin and halide sensor YFP expressing CHO-K1 cells. Each well of the cell cultured 96-well plate was washed with PBS of 200 μL twice, and was filled with HEPES buffer solution (140 mM NaCl, 5 mM KCl, 1 mM MgCl2, 1 mM CaCl2, 10 mM glucose and 10 mM HEPES (pH 7.4)), respectively. […] After culturing at 37° C. for 10 minutes, the 96-well plate was positioned on FLUOstar Omega microplate reader (BMG Labtech, Ortenberg, Germany) for fluorescence analysis.
By continuously (400 ms per point) recording fluorescence for 1 second (base line), each well was individually analyzed for pendrin-mediated I^− inflow, and then at 1 second, 50 μL of NaI-substituted HEPES buffer solution (140 mM NaI, 5 mM KCl, 1 mM MgCl2, 1 mM CaCl2, 10 mM glucose and 10 mM HEPES (pH 7.4)) was added using a liquid injector and the YFP fluorescence was recorded for 5 seconds. The initial iodide inflow rate was determined from the initial slope of fluorescence by nonlinear regression, after injection the iodide.

The structures appear in SMILES notation.

Consider `COC(=O)c1ccc(C2=NC(=Cc3ccco3)C(=O)O2)cc1` [F31, Methyl 4-(4-(furan-2-ylmethylene)-5-oxo-4,5-dihydrooxazol-2-yl)benzoate], for which the inhibition at 30 µM is 4.2%. Same read-out and setting: then `COC(=O)c1ccc(C2=NC(=Cc3ccsc3)C(=O)O2)cc1` [F32, Methyl 4-(5-oxo-4-(thiophen-3-ylmethylene)-4,5-dihydrooxazol-2-yl)benzoate], with 3.7%. `CC(=O)Nc1ccc(C2=NC(=Cc3cccs3)C(=O)O2)cc1` [F33, N-(4-(5-oxo-4-(thiophen-2-ylmethylene)-4,5-dihydrooxazol-2-yl)phenyl)acetamide]: the inhibition at 30 µM worked out at 88.7% and the IC50 stood at 9.3 ± 0.68 µM.

Consider `COc1ccccc1C1=NC(=Cc2cccs2)C(=O)O1` [F34, 2-(2-Methoxyphenyl)-4-(thiophen-2-ylmethylene)oxazol-5 (4H)-one], for which the inhibition at 30 µM amounted to 82.8% and the IC50 turned out to be 8.6 ± 0.84 µM. The matching figures for `CC(C)(C)NS(=O)(=O)c1ccc(C2=NC(=Cc3cccs3)C(=O)O2)cc1` [F35, N-(tert-butyl)-4-(5-oxo-4-(thiophen-2-ylmethylene)-4,5-dihydrooxazol-2-yl)benzene sulfonamide]: 87.2% and 11.6 ± 1.25 µM. The like results for `CC(C)NS(=O)(=O)c1ccc(C2=NC(=Cc3cccs3)C(=O)O2)cc1` [F36, N-isopropyl-4-(5-oxo-4-(thiophen-2-ylmethylene)-4,5-dihydrooxazol-2-yl)benzene sulfonamide] were, in that order, 89.6% and 14.8 ± 2.01 µM. `O=C1OC(c2ccc(-c3ccccc3)cc2)=NC1=Cc1cccs1` [F37, 2-([1,1′-biphenyl]-4-yl)-4-(thiophen-2-ylmethylene)oxazol-5 (4H)-one]: the inhibition at 30 µM came out at 3.5%.

Regarding `CC(C)(C)c1ccc(C2=NC(=Cc3ccco3)C(=O)O2)cc1` [F38, 2-(4-(tert-butyl)phenyl)-4-(furan-2-ylmethylene)oxazol-5 (4H)-one], the inhibition at 30 µM is 92.6% and the IC50 was found to be 3.5 ± 0.27 µM.

With `Cn1cc(C=C2N=C(c3ccc(C(C)(C)C)cc3)OC2=O)cn1` [F39, 2-(4-(tert-butyl)phenyl)-4-((1-methyl-1H-pyrazol-4-yl)methylene)oxazol-5(4H)-one], the inhibition at 30 µM was 58.8% and the IC50 was 25.8 ± 2.16 µM.

`CC(C)(C)c1ccc(C2=NC(=Cc3cccnc3)C(=O)O2)cc1` [F40, 2-(4-(tert-butyl)phenyl)-4-(pyridin-3-ylmethylene)oxazol-5(4H)-one]: the inhibition at 30 µM is 92.3%. As to `CC(C)(C)c1ccc(C2=NC(=Cc3ccncc3)C(=O)O2)cc1` [F41, 2-(4-(tert-butyl)phenyl)-4-(pyridin-4-ylmethylene)oxazol-5(4H)-one], the inhibition at 30 µM was 27.5%.

For `O=C1OC(c2ccc(-c3ccccc3)cc2)=NC1=Cc1cccnc1` [F42, 2-([1,1′-biphenyl]-4-yl)-4-(pyridin-3-ylmethylene)oxazol-5(4H)-one], the inhibition at 30 µM worked out at 4.2%.

Consider `CSc1ccc(C=C2N=C(c3ccc(C(C)(C)C)cc3)OC2=O)cc1` [F43, 2-(4-(tert-butyl)phenyl)-4-(4-(methylthio)benzylidene)oxazol-5 (4H)-one], for which the inhibition at 30 µM was determined as 5.4%. Same read-out and setting: then `CC(C)(C)c1ccc(C2=NC(=Cc3ccccc3)C(=O)O2)cc1` [F44, 4-Benzylidene-2-(4-(tert-butyl)phenyl)oxazol-5 (4H)-one], with 3.5%. Regarding `O=C1OC(c2ccc(Br)cc2)=NC1=Cc1cccs1` [F45, 2-(4-Bromophenyl)-4-(thiophen-2-ylmethylene)oxazol-5 (4H)-one], the inhibition at 30 µM came out at 4.6%.

With `CC(C)c1ccc(C2=NC(=Cc3cccs3)C(=O)O2)cc1` [F46, 2-(4-Isopropylphenyl)-4-(thiophen-2-ylmethylene)oxazol-5(4H)-one], the inhibition at 30 µM turned out to be 53.8% and the IC50 was determined as 22.7 ± 2.48 µM. As to `CC(C)c1ccc(C2=NC(=Cc3ccsc3)C(=O)O2)cc1` [F47, 2-(4-Isopropylphenyl)-4-(thiophen-3-ylmethylene)oxazol-5(4H)-one], the inhibition at 30 µM was determined as 33.2%. In the case of `O=C1OC(c2ccc(C(F)(F)F)cc2)=NC1=Cc1ccco1` [F48, 4-(Furan-2-ylmethylene)-2-(4-(trifluoromethyl)phenyl)oxazol-5(4H)-one], the inhibition at 30 µM amounted to 2.4%.

Take `CC(C)c1ccc(C2=NC(=Cc3ccco3)C(=O)O2)cc1` [F49, 4-(Furan-2-ylmethylene)-2-(4-isopropylphenyl)oxazol-5 (4H)-one]: the inhibition at 30 µM was 89.1% and the IC50 was 3.9 ± 0.36 µM.

In the case of `O=C1OC(c2ccc(Br)cc2)=NC1=Cc1ccco1` [F50, 2-(4-Bromophenyl)-4-(furan-2-ylmethylene)oxazol-5 (4H)-one], the inhibition at 30 µM was 3.7%. On the same count and under the same terms, in the case of `O=C1OC(c2ccc(Br)cc2)=NC1=Cc1ccsc1` [F51, 2-(4-Bromophenyl)-4-(thiophen-3-ylmethylene)oxazol-5(4H)-one] it was 2.7%; in that of `O=C1OC(c2ccc3ccccc3c2)=NC1=Cc1cccs1` [F52, 2-(Naphthalen-2-yl)-4-(thiophen-2-ylmethylene)oxazol-5(4H)-one], 4.1%. On the same count and under the same terms, then `CCCCc1ccc(C2=NC(=Cc3cccs3)C(=O)O2)cc1` [F53, 2-(4-Butylphenyl)-4-(thiophen-2-ylmethylene)oxazol-5(4H)-one], with 3.1%.

On to `CCCCc1ccc(C2=NC(=Cc3ccco3)C(=O)O2)cc1` [F54, 2-(4-Butylphenyl)-4-(furan-2-ylmethylene)oxazol-5 (4H)-one], for which the inhibition at 30 µM is 2.6%. Still for that read-out and setting: in the case of `O=C1OC(c2ccc(OC(F)F)cc2)=NC1=Cc1cccs1` [F55, 2-(4-(difluoromethoxy)phenyl)-4-(thiophen-2-ylmethylene)oxazol-5(4H)-one] it was 3.8%; in that of `O=C1OC(c2ccccc2)=NC1=Cc1ccccc1[N+](=O)[O-]` [F57, 4-(2-Nitrobenzylidene)-2-phenyloxazol-5(4H)-one], 16.1%. Regarding `CC(=O)Oc1ccc(C=C2N=C(c3ccc(C(C)(C)C)cc3)OC2=O)cc1` [F58, 4-((2-(4-(tert-butyl)phenyl)-5-oxooxazol-4 (5H)-ylidene)methyl)phenylacetate], the inhibition at 30 µM turned out to be 2.5%. For the compound `CN(C)c1ccc(C=C2N=C(c3sc4ccccc4c3Cl)OC2=O)cc1` [F59, 2-(3-Chlorobenzo[b]thiophen-2-yl)-4-(4-(dimethylamino)benzylidene)oxazol-5(4H)-one], the inhibition at 30 µM was 1.8%.

For the compound `COc1ccc(C2=NC(=Cc3ccc(C(=O)O)cc3)C(=O)O2)cc1` [F60, 4-((2-(4-Methoxyphenyl)-5-oxooxazol-4(5H)-ylidene)methyl)benzoate], the inhibition at 30 µM is 3.1%. Regarding `O=C1OC(c2ccccc2)=NC1=Cc1cccs1` [F61, 2-Phenyl-4-(thiophen-2-ylmethylene)oxazol-5(4H)-one], the inhibition at 30 µM was determined as 2.2%.
